Laboratory results as given in article PMC4293787 (The Scientific World Journal, 2014).
Converted amounts (≈) assume the structure as drawn. Where two headings read alike, the source gives them in different places.

Experiments:
in vitro [1] = details: human
hepatitis B virus (HBV) = assay: Antiviral test against HBV in HepG 2.2.2.15 cells; format: cell-based, strain ayw1; set-up: SI50: unit not given beside the values; details: for SI50: HBV, HepG 2.2.2.15 cells
influenza A H1N1 virus [2] = assay: Antiviral test against influenza A H1N1 in MDCK cells, neutral red (cytopathic effect); format: cell-based, strain California 07/2009; set-up: SI50: unit not given beside the values; details: for EC50: Influenza A virus, H1N1, MDCK
in vitro [3] = details: dog, MDCK cells
influenza A H1N1 virus [4] = assay: Antiviral test against influenza A H1N1 in MDCK cells, visual (cytopathic effect); format: cell-based, strain California 07/2009; set-up: SI50: unit not given beside the values; details: for EC50: Influenza A virus, H1N1, MDCK
in vitro [5] = details: dog, MDCK cells; remark: listed apart in the source
in vitro [6] = details: human; remark: listed apart in the source
[7] = tested on: herpes simplex virus 1 (HSV-1); assay: microbe, parasite or virus in culture; format: cell-based, strain E-377; set-up: SI50: unit not given beside the values; details: for EC50: Human alphaherpesvirus 1, HFF
vaccinia virus (VV) = assay: microbe, parasite or virus in culture; format: cell-based, strain Copenhagen; details: Orthopoxvirus vaccinia, HFF
[8] = Toxicity (CC50) in the HSV-1 test, HFF cells (crystal violet); details: human
[9] = tested on: herpes simplex virus 2 (HSV-2); assay: Antiviral test against HSV-2 in HFF cells (crystal violet); format: cell-based, strain MS; set-up: SI50: unit not given beside the values
[10] = Toxicity (CC50) in the HSV-2 test, HFF cells (crystal violet); details: human
[11] = Hepatitis B virus, HepG2 2.2.15

| SMILES | CC50 (in vitro [1]) [µM] | SI50 (hepatitis B virus (HBV)) | EC50 (hepatitis B virus (HBV); [11]) [µM] | EC50 (influenza A H1N1 virus [2]) [µg/mL] | CC50 (in vitro [3]) [µg/mL] | melting point | EC50 (influenza A H1N1 virus [4]) [µg/mL] | CC50 (in vitro [5]) [µg/mL] | further results |
| --- | --- | --- | --- | --- | --- | --- | --- | --- | --- |
| O=C(NC1C=CC(O)CC1)c1cccnc1 (stereo not drawn) [Compound 14b, N-(4-Hydroxycyclohex-2-enyl)nicotinamide] | > 20 | 1 | > 20 | > 100 | > 100 | 95 to 99 °C | > 100 | > 100 |  |
| O=C(NC1C=CC(O)C1)c1cccnc1 (stereo not drawn) [Compound 13b, N-(4-Hydroxycyclopent-2-enyl)nicotinamide] |  |  |  | > 100 | > 100 | 125 to 127 °C | > 100 | > 100 | CC50 (in vitro [6]): > 300 µM |
| Nc1ccn([C@@H]2CS[C@H](CO)O2)c(=O)n1 [Compound 3TC, 3TC, reference compound] |  |  |  |  |  |  |  |  | EC50 (hepatitis B virus (HBV); HBV strain ayw1, drug concentration range 0.063–20 μM, 3TC control range 0.00032–0.1 μM, read-out: EC50): 0.01 µM |
| O=C(NC1C=CC(O)CC1)c1ccncc1 (stereo not drawn) [Compound 14c, N-(4-Hydroxycyclohex-2-enyl)isonicotinamide] | > 100 | 1 | 9.64 | > 100 | > 100 | 245 to 250 °C (dec.) | > 100 | > 100 |  |
| O=C(NC1C=CC(O)C1)c1ccncc1 (stereo not drawn) [Compound 13c, N-(4-Hydroxycyclopent-2-enyl)isonicotinamide] |  |  |  | > 100 | > 100 | 170 to 175 °C | > 100 | > 100 | CC50 (in vitro [6]): > 300 µM |
| O=C(NC1C=CC(O)CC1)c1ccccn1 (stereo not drawn) [Compound 14a, N-(4-Hydroxycyclohex-2-enyl)picolinamide] | > 20 | 1 | > 20 | > 100 | > 100 |  | > 100 | > 100 |  |
| Nc1ccn(C[C@@H](CO)OCP(=O)(O)O)c(=O)n1 [cidofovir] |  | > 1 | 180 |  |  |  |  |  | SI50 ([7]; HSV-1, HFF cells): > 1; EC50 [7]: 180 µM; EC50 (vaccinia virus (VV)): 6.07 µM; CC50 [8]: > 200 µM |
| NC(=O)c1ncn([C@@H]2O[C@H](CO)[C@@H](O)[C@H]2O)n1 [Ribavirin, reference compound] |  |  |  | 3.1 (≈ 12.7 µM) |  |  | 3.2 (≈ 13.1 µM) |  | SI50 (influenza A H1N1 virus [2]): 14; SI50 (influenza A H1N1 virus [4]): >31 |
| O=C(NC1C=CC(O)CC1)c1ccc2ccccc2n1 (stereo not drawn) [Compound 14d, N-(4-Hydroxycyclohex-2-enyl)quinoline-2-carboxamide] | > 20 | 1 | > 20 | 54 (≈ 201 µM) |  | 80 to 84 °C | 37 (≈ 138 µM) |  | SI50 (influenza A H1N1 virus [2]; influenza A H1N1, MDCK cells, neutral red): 1.4; SI50 (influenza A H1N1 virus [4]; influenza A H1N1, MDCK cells, visual): >2.7 |
| Nc1nc2c(ncn2COCCO)c(=O)[nH]1 [acyclovir] |  |  |  |  |  |  |  |  | SI50 [9]: > 27; EC50 ([9]; Human alphaherpesvirus 2, HFF): 3.7 µM; CC50 [10]: > 100 µM; SI50 [7]: > 30; EC50 [7]: 3.29 µM; CC50 [8]: > 100 µM |
| O=C(NC1C=CC(O)C1)c1ccc2ccccc2n1 (stereo not drawn) [Compound 13d, N-(4-Hydroxycyclopent-2-enyl)quinoline-2-carboxamide] |  |  |  | > 100 | > 100 | 89 to 90 °C | > 100 | > 100 |  |
| O=C(NC1C=CC(O)C1)c1ccccn1 (stereo not drawn) [Compound 13a, N-(4-Hydroxycyclopent-2-enyl)picolinamide] |  |  |  | > 100 | > 100 |  | > 100 | > 100 |  |
